We go through one compound from ChEMBL document CHEMBL5247598 (Eur J Med Chem, 2022).

The source made the active and inactive calls. The rule behind the calls is not given here.

Data set [1] relates to NCI-ADR-RES. Briefly: Inhibition of PI3K/AKT signaling pathway in human NCI-ADR-RES cells assessed as changes in caspase-6 level at 3 uM incubated for 24 to 48 hrs in presence of doxorubicin by Western blot analysis. The format is cell-based. Conditions: time 24-48 hrs.
For data set [2], the system named is NCI/ADR-RES. Description: Induction of apoptosis in human NCI-ADR-RES cells assessed as early apoptotic cells at 3 uM incubated for 48 hrs by Annexin V-FITC and DAPI staining based flow cytometry (Rvb= 0.89 %). The format is functional.
Data set [3] deals with NCI/ADR-RES. Description: Induction of apoptosis in human NCI-ADR-RES cells assessed as late apoptotic cells at 8 uM incubated for 48 hrs in presence of doxorubicin by Annexin V-FITC and DAPI staining based flow cytometry (Rvb= 0.66 %). The format is functional.
The test system of data set [4] is NCI/ADR-RES. Briefly: Induction of apoptosis in human NCI-ADR-RES cells assessed as early apoptotic cells at 3 uM incubated for 24 hrs by Annexin V-FITC and DAPI staining based flow cytometry (Rvb= 0.89 %). The format is functional.
A further data set concerns HEK-293T. Description: Cytotoxicity against human HEK293T cells assessed as inhibition of cell growth at 50 uM incubated for 48 hrs by MTT assay. It counts as toxicity, cell-based.
The test system of a further data set is MCF7. Briefly: Antiproliferative activity against human MCF7 cells assessed as inhibition of cell growth at 50 uM incubated for 48 hrs by MTT assay. The format is functional, cell-based.
A short description of data set [5]: Cytotoxicity against human HEK293T cells assessed as reduction in cell viability incubated for 48 hrs by MTT assay. The format is toxicity, cell-based, HEK-293T.
In data set [6] the test system is NCI-ADR-RES. Description: Inhibition of PI3K/AKT signaling pathway in human NCI-ADR-RES cells assessed as increase in cleaved PARP level at 3 uM incubated for 24 to 48 hrs in presence of doxorubicin by Western blot analysis. It counts as cell-based. Conditions: time 24-48 hrs.
Data set [7] concerns NCI/ADR-RES. Description: Induction of apoptosis in human NCI-ADR-RES cells assessed as late apoptotic cells at 8 uM incubated for 24 hrs in presence of doxorubicin by Annexin V-FITC and DAPI staining based flow cytometry (Rvb= 0.66 %). The format is functional.
For data set [8], the system named is NCI/ADR-RES. Description: Induction of apoptosis in human NCI-ADR-RES cells assessed as necrotic cells at 3 uM incubated for 48 hrs by Annexin V-FITC and DAPI staining based flow cytometry (Rvb= 0.55 %). The format is functional.
Data set [9] concerns NCI-ADR-RES. Briefly: Inhibition of PI3K/AKT signaling pathway in human NCI-ADR-RES cells assessed as decrease in Bcl-xL level at 3 uM incubated for 24 to 48 hrs in presence of doxorubicin by Western blot analysis. As to conditions: time 24-48 hrs. The format is cell-based.
Data set [10] concerns NCI/ADR-RES. Briefly: Induction of apoptosis in human NCI-ADR-RES cells assessed as necrotic cells at 8 uM incubated for 48 hrs in presence of doxorubicin by Annexin V-FITC and DAPI staining based flow cytometry (Rvb= 0.55 %). The format is functional.

Consider `C=C1[C@H](OC(C)=O)[C@@H](OC(C)=O)[C@@H](OC(C)=O)C(C)(C)/C=C/[C@H](C)[C@H](OC(=O)c2ccccc2)[C@@]2(O)C[C@@](C)(OC(=O)C(C)(C)C)[C@H](OC(C)=O)[C@@H]2[C@H]1OCC(C)C`, for which, in the data set on NCI-ADR-RES [1], the inhibition result is “inactive”. The Activity was 0.69% in the data set on NCI/ADR-RES [2]; 8.03% in the data set on NCI/ADR-RES [3]; 0.67% in the data set with NCI/ADR-RES [4]; “Non-Toxic” in the data set with HEK-293T; 1.56% with NCI/ADR-RES [7]; 0.43% in the data set with NCI/ADR-RES [8]. The Activity in the data set with NCI/ADR-RES [10] came to 10.7%. In the data set with MCF7, the outcome was inactive. Besides, in data set [5], the IC50 at 48 h came to 56.3 µM. Besides, the inhibition result with NCI-ADR-RES [6] and in the data set with NCI-ADR-RES [9] was “Active” in each case.
